Converted amounts (≈) assume the structure as drawn.
Columns and labels:
[1] = Cytotoxicity against mouse RAW264.7 cells assessed as inhibition of cell viability at 100 uM measured after 72 hrs by MTT assay relative to control; type: toxicity; details: read-out: INH
[2] = biological target: DNA gyrase subunit A/DNA gyrase subunit B (Mycobacterium tuberculosis (strain ATCC 25618 / H37Rv), UniProt P9WG45+P9WG47); test: Inhibition of Mycobacterium tuberculosis DNA gyrase assessed as inhibition of DNA supercoiling activity using relaxed pBR322 as substrate incubated for 30 mins by ethidium bromide staining based agarose gel electrophoresis
Chain of DNA gyrase subunit A/DNA gyrase subunit B (P9WG45 whole entry): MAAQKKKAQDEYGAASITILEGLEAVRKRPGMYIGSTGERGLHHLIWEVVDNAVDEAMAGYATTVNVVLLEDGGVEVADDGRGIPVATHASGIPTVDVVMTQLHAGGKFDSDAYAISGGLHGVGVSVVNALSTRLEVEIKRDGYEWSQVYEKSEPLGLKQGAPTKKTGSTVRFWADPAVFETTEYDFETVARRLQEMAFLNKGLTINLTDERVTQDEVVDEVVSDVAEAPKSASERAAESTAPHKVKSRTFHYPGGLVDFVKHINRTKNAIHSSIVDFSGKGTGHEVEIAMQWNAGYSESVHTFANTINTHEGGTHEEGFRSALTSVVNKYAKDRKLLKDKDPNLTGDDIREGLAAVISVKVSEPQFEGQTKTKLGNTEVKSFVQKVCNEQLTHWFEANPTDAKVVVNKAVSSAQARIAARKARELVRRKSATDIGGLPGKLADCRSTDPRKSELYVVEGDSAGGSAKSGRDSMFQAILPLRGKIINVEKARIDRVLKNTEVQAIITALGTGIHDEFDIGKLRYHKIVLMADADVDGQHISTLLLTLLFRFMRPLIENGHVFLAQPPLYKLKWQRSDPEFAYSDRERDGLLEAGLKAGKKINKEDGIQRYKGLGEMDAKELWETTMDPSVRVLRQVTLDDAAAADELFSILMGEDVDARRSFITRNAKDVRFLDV
Chain of DNA gyrase subunit A/DNA gyrase subunit B (P9WG47 whole entry): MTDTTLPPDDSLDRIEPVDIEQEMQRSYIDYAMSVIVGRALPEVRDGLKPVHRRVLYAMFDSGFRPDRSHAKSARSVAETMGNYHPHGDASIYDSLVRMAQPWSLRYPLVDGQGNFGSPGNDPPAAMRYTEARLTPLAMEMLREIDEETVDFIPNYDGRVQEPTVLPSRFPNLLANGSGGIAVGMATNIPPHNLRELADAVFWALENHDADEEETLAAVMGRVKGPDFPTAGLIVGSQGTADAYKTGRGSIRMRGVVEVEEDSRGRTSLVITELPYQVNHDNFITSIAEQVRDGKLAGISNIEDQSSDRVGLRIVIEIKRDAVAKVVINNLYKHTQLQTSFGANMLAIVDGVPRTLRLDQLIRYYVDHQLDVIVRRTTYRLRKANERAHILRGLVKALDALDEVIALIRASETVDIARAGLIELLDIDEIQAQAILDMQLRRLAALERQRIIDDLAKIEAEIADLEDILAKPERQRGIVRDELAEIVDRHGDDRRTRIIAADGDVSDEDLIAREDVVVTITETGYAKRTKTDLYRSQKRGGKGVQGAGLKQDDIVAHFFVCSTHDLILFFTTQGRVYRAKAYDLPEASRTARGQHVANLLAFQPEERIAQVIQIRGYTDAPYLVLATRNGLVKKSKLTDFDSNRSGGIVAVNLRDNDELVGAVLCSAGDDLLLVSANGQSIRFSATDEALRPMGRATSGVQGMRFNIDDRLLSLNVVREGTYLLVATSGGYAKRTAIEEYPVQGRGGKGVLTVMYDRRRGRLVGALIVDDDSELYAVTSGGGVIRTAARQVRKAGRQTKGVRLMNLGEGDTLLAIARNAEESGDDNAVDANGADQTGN

[3] = Cytotoxicity against mouse RAW264.7 cells assessed as inhibition of cell viability at 100 uM measured after 48 hrs by MTT assay relative to control; type: toxicity; details: read-out: INH
[4] = tested on: Mycobacterium tuberculosis; test: Antimycobacterial activity against Mycobacterium tuberculosis incubated for 7 days by alamar blue assay; type: functional; details: 168 h

SMILES | cytotoxicity at 72 h, 100 µM [1] | IC50 [2] | cytotoxicity at 48 h, 100 µM [3] | MIC [4]
Cc1ccc2c(c1)C(=O)C(=O)N2CCN1CCN(NCc2ccc([N+](=O)[O-])o2)CC1 | 27.8% | > 50 µM |  | 
Cc1ccc(CN2CCN(c3nc(=O)c4cc([N+](=O)[O-])ccc4s3)CC2)cc1 |  | 8.93 µM | 26.5% | 15.8 µM (≈ 6.25 µg/mL)
COc1ccc2c(c1)C(=O)C(=O)N2CCN1CCN(NCc2ccccc2F)CC1 | 16.3% | > 50 µM |  | 
Cc1ccc(NC(=O)N2CCN(c3nc(=O)c4cc([N+](=O)[O-])ccc4s3)CC2)cc1 |  | 9.62 µM | 16.2% | 14.7 µM (≈ 6.25 µg/mL)
O=C1C(=O)N(CCN2CCN(NCc3ccccc3)CC2)c2ccc(F)cc21 | 29.3% | > 50 µM |  | 
O=C1C(=O)N(CCN2CCN(NCc3cccc(Cl)c3Cl)CC2)c2ccc(F)cc21 | 31.2% | > 50 µM |  | 
O=C1C(=O)N(CCN2CCN(NCc3ccc([N+](=O)[O-])o3)CC2)c2ccc(F)cc21 | 37.8% | > 50 µM |  | 
O=c1nc(N2CCN(Cc3ccccc3)CC2)sc2ccc([N+](=O)[O-])cc12 |  | 3.21 µM | 5.41% | 4.08 µM (≈ 1.56 µg/mL)
O=c1nc(N2CCN(Cc3ccc([N+](=O)[O-])cc3)CC2)sc2ccc([N+](=O)[O-])cc12 |  | 4.21 µM | 21.4% | 7.31 µM (≈ 3.12 µg/mL)
O=c1nc(N2CCN(Cc3ccc([N+](=O)[O-])cc3)CC2)sc2ccc(Cl)cc12 |  | 7.33 µM | 5.48% | 15 µM (≈ 6.25 µg/mL)
O=C(Nc1ccc([N+](=O)[O-])cc1)N1CCN(c2nc(=O)c3cc(C(F)(F)F)ccc3s2)CC1 |  | 26.5 µM |  | 52.1 µM (≈ 25 µg/mL)
O=C(Nc1ccc(Cl)cc1)N1CCN(c2nc(=O)c3cc([N+](=O)[O-])ccc3s2)CC1 |  | 23.7 µM |  | 28 µM (≈ 12.5 µg/mL)
Cc1ccc(NC(=S)N2CCN(c3nc(=O)c4cc(Cl)ccc4s3)CC2)cc1 |  | 11.6 µM | 2.48% | 14.5 µM (≈ 6.25 µg/mL)
O=c1nc(N2CCN(C(=S)Nc3ccc(Cl)cc3)CC2)sc2ccc([N+](=O)[O-])cc12 |  | 0.51 µM | 1.81% | 4.41 µM (≈ 2.04 µg/mL)
COc1ccccc1CNN1CCN(CCN2C(=O)C(=O)c3ccccc32)CC1 | 21.3% | > 50 µM |  | 
COc1ccccc1CNN1CCN(CCN2C(=O)C(=O)c3cc(F)ccc32)CC1 | 19.1% | > 50 µM |  | 
Cc1ccc2c(c1)C(=O)C(=O)N2CCN1CCN(NCc2ccccc2C(F)(F)F)CC1 | 13.6% | > 50 µM |  | 
CO[C@@H]1[C@@H](OC(N)=O)[C@@H](O)[C@H](Oc2ccc3c(O)c(NC(=O)c4ccc(O)c(CC=C(C)C)c4)c(=O)oc3c2C)OC1(C)C [NOVOBIOCIN] |  |  | 7.56% | > 200 µM
Cc1ccc(NC(=S)N2CCN(c3nc(=O)c4cc(C(F)(F)F)ccc4s3)CC2)cc1 |  | 4.51 µM | 16.4% | 9.54 µM (≈ 4.43 µg/mL)
Cc1ccc2c(c1)C(=O)C(=O)N2CCN1CCN(NCc2ccccc2)CC1 | 19.7% | > 50 µM |  | 
O=C(Nc1ccc([N+](=O)[O-])cc1)N1CCN(c2nc(=O)c3cc(Cl)ccc3s2)CC1 |  | 4.61 µM | 3.56% | 5.24 µM (≈ 2.34 µg/mL)
O=c1nc(N2CCN(C(=S)Nc3ccccc3)CC2)sc2ccc(Cl)cc12 |  | 10.9 µM | 2.35% | 11.2 µM (≈ 4.68 µg/mL)
O=C(Nc1ccc(Cl)cc1)N1CCN(c2nc(=O)c3cc(Cl)ccc3s2)CC1 |  | 10.5 µM | 2.56% | 17.9 µM (≈ 7.8 µg/mL)
O=C1C(=O)N(CCN2CCN(NCc3ccccc3)CC2)c2ccccc21 | 7.6% | > 50 µM |  | 

SMILES | cytotoxicity at 72 h, 100 µM [1] | IC50 [2] | cytotoxicity at 48 h, 100 µM [3] | MIC [4]
O=C1C(=O)N(CCN2CCN(NCc3ccccc3F)CC2)c2ccc(Cl)cc21 | 17.6% | > 50 µM |  | 
O=c1nc(N2CCN(C(=S)Nc3ccc(Cl)cc3)CC2)sc2ccc(C(F)(F)F)cc12 |  | 4.23 µM | 3.15% | 8.59 µM (≈ 4.17 µg/mL)
O=c1nc(N2CCN(C(=S)Nc3ccccc3)CC2)sc2ccc(C(F)(F)F)cc12 |  | 0.83 µM | 6.48% | 4.62 µM (≈ 2.08 µg/mL)
Cc1ccc(NC(=O)N2CCN(c3nc(=O)c4cc(Cl)ccc4s3)CC2)cc1 |  | 2.62 µM | 5.14% | 6.02 µM (≈ 2.5 µg/mL)
O=c1nc(N2CCN(C(=S)Nc3ccc([N+](=O)[O-])cc3)CC2)sc2ccc(C(F)(F)F)cc12 |  | 2.16 µM | 5.48% | 5.04 µM (≈ 2.5 µg/mL)
O=C(Nc1ccccc1)N1CCN(c2nc(=O)c3cc(C(F)(F)F)ccc3s2)CC1 |  | 11 µM |  | 19.2 µM (≈ 8.33 µg/mL)
Cc1ccc(NC(=O)N2CCN(c3nc(=O)c4cc(C(F)(F)F)ccc4s3)CC2)cc1 |  | 5.26 µM | 7.56% | 11.5 µM (≈ 5.18 µg/mL)
O=c1nc(N2CCN(C(=S)Nc3ccc([N+](=O)[O-])cc3)CC2)sc2ccc([N+](=O)[O-])cc12 |  | 2.59 µM | 2.21% | 5.29 µM (≈ 2.5 µg/mL)
O=c1nc(N2CCN(Cc3ccc(Cl)cc3)CC2)sc2ccc(Cl)cc12 |  | 12.1 µM | 5.36% | 15.4 µM (≈ 6.25 µg/mL)
O=C1C(=O)N(CCN2CCN(NCc3ccccc3)CC2)c2ccc(Cl)cc21 | 22.3% | > 50 µM |  | 
O=C(Nc1ccccc1)N1CCN(c2nc(=O)c3cc(Cl)ccc3s2)CC1 |  | 17.5 µM | 16.5% | 15.6 µM (≈ 6.25 µg/mL)
O=c1nc(N2CCN(Cc3ccccc3)CC2)sc2ccc(Cl)cc12 |  | 17.6 µM |  | 33.6 µM (≈ 12.5 µg/mL)
Cc1ccc(NC(=S)N2CCN(c3nc(=O)c4cc([N+](=O)[O-])ccc4s3)CC2)cc1 |  | 0.82 µM | 4.22% | 2.83 µM (≈ 1.25 µg/mL)
O=c1nc(N2CCN(Cc3ccc([N+](=O)[O-])cc3)CC2)sc2ccc(C(F)(F)F)cc12 |  | 4.55 µM | 14.6% | 5.19 µM (≈ 2.34 µg/mL)
O=c1nc(N2CCN(C(=S)Nc3ccc(Cl)cc3)CC2)sc2ccc(Cl)cc12 |  | 6.86 µM | 25.6% | 6.92 µM (≈ 3.12 µg/mL)
O=c1nc(N2CCN(Cc3ccc(Cl)cc3)CC2)sc2ccc(C(F)(F)F)cc12 |  | 3.86 µM | 8.45% | 6.31 µM (≈ 2.78 µg/mL)
O=C(Nc1ccc([N+](=O)[O-])cc1)N1CCN(c2nc(=O)c3cc([N+](=O)[O-])ccc3s2)CC1 |  | 9.11 µM | 15.2% | 13.7 µM (≈ 6.24 µg/mL)
O=C(Nc1ccc(Cl)cc1)N1CCN(c2nc(=O)c3cc(C(F)(F)F)ccc3s2)CC1 |  | 10.5 µM | 10.2% | 13.3 µM (≈ 6.25 µg/mL)
O=c1nc(N2CCN(Cc3ccc(Cl)cc3)CC2)sc2ccc([N+](=O)[O-])cc12 |  | 3.68 µM | 1.56% | 5.99 µM (≈ 2.5 µg/mL)
Cc1ccc(CN2CCN(c3nc(=O)c4cc(Cl)ccc4s3)CC2)cc1 |  | 21.5 µM | 2.36% | 24.2 µM (≈ 9.36 µg/mL)
COc1ccc2c(c1)C(=O)C(=O)N2CCN1CCN(NCc2ccc([N+](=O)[O-])o2)CC1 | 31.6% | > 50 µM |  | 
O=c1nc(N2CCN(Cc3ccccc3)CC2)sc2ccc(C(F)(F)F)cc12 |  | 11.5 µM |  | 15.4 µM (≈ 6.25 µg/mL)
Cc1ccc(CN2CCN(c3nc(=O)c4cc(C(F)(F)F)ccc4s3)CC2)cc1 |  | 11.6 µM | 18.6% | 16.7 µM (≈ 7.02 µg/mL)
O=C(Nc1ccccc1)N1CCN(c2nc(=O)c3cc([N+](=O)[O-])ccc3s2)CC1 |  | 16.8 µM |  | 30.4 µM (≈ 12.5 µg/mL)

— ChEMBL document CHEMBL3875146, “Mycobacterium Tuberculosis (MTB) GyrB inhibitors: An attractive approach for developing novel drugs against TB” (Eur J Med Chem, 2016)
